{"source": "patent US9999690B2", "about": "“Labeled compounds and methods of imaging, diagnosing cartilage disorders and diseases, and monitoring cartilage health using labeled and unlabeled compounds” (Perosphere Inc., priority 2013, dated 2018)", "key": {"[1]": {"assay": "Tissue distribution of radioactivity by Quantitative Whole-Body Autoradiography (QWBA), Group 4", "assay_type": "in vivo", "conditions": "rat, single IV 2 mg/kg", "method": "(§1) A study was conducted to determine the pharmacokinetics, rates and routes of excretion with mass baseline and tissue distribution of radioactivity, after a single intravenous dose administration of formula XIII (also referred to as [^14C]DAP) was administered to the rats by tail vein intravenous injection at a\n(§2) The study was conducted on 19 male rats divided into 4 groups. The first group of 6 rats was used for blood collection (Group 1); the second group of 4 rats was used for urine, feces, cage rinses and wipes and carcasses collection (Group 2); the third group of 4 rats was used for expired air collection (Group 3); the fourth group of 5 rats was used for terminal blood/serum and tissue distribution by Quantitative Whole-Body Autoradiography (QWBA) (Group 4).\n(§3) For Group 4, formula XIII (QWBA was run at 1, 8, 12, 24 and 72 hours post dose. After terminal blood collection, each euthanized animal was frozen in a hexane/dry ice bath and embedded in a 2% carboxymethylcellulose matrix according to MPI Research SOP ADME-112. The embedded carcasses were sectioned according to MPI Research SOP ADME-113 on a Leica CM3600 Cyromacrotome set to maintain −10 to −30° C. At least four fortified quality control standards of known radioactive concentration were placed into the frozen block prior to sectioning and used for section thickness quality control. The quality control standards were sectioned under the same conditions as the specimen. The intrasection and intersection variation of collected sections were determined by analyzing the quality control standards. Section variation must be less than 20% for quantitative analysis. Sections that were approximately 40μm thick were taken in the sagittal plane. Appropriate sections selected at various levels of interest in the block were collected to encompass the following tissues, organs, and biological fluids, where possible: adrenal gland, bladder (urinary) and contents (urine), blood (cardiac), bone, bone marrow, brain, eye, fat (brown), fat (white), heart, kidney, large intestine/cecum and contents, liver, lung, muscle, pancreas, prostate, salivary glands, skin, small intestine and contents, spleen, stomach and contents, testes, thymus, thyroid, mesenteric lymph nodes, and epididymis. A set of sections were mounted, exposed to phosphor imaging screens and scanned using the Storm 860 image acquisition system according to MPI Research SOP ADME-112. Quantification, relative to the calibration standards, were performed by image densitometry using MCID™ image analysis software according to MPI Research SOP ADME-114. A standard curve was constructed from the integrated response (MDC/mm2) and the nominal concentrations of the [^14C]Glucose calibration standards. Relative error should be less than 0.5 for each point on the curve. The concentrations of radioactivity were expressed as μCi/g and were converted to μg or ng-equivalents of DAP per gram of sample (μg- or ng-eq/g) using the specific activity of administered [^14C]DAP dose formulation. A lower limit of quantification (LLOQ) was applied to the data. The LLOQ was determined using the radioactive concentration of the lowest calibration standard used to generate a calibration curve divided by the specific activity of the dose formulation (μCi/ug). Artifacts, such as those produced by dislodged contents of the alimentary canal, were excluded from analysis during image analysis."}, "[2]": {"assay": "Rat blood PK and blood to serum ratio, Group 4", "assay_type": "in vivo", "method": "as §1, §2, §3"}, "[3]": {"assay": "In vivo toxicity study, dogs", "conditions": "dog, read-out: Maximum tolerated dose", "method": "A study was conducted to test the toxicity of labeled formula XIII in rats and dogs. Maximum tolerated doses were 40 mg/kg for rats and 35 mg/kg for dogs."}}}
{"smiles": "[2H]C1([2H])N(CCCNC(=O)[C@@H](N)CCCNC(=N)N)C([2H])([2H])C([2H])([2H])N(CCCNC(=O)[C@@H](N)CCCNC(=N)N)C1([2H])[2H]", "note": "[formula XIII]", "values": [{"measurement": "Concentration of Radioactivity in Urinary bladder", "setting": "[1]; 12 Hours", "result": "1095 ng Equivalents [^14C]DAP/g"}, {"measurement": "Concentration of Radioactivity in Urine", "setting": "[1]; 12 Hours", "result": "5011 ng Equivalents [^14C]DAP/g"}, {"measurement": "Concentration of Radioactivity in Bone marrow", "setting": "[1]; 24 Hours", "result": "1987 ng Equivalents [^14C]DAP/g"}, {"measurement": "Concentration of Radioactivity in Eye (lens)", "setting": "[1]; 24 Hours", "result": "BLQ (Below limit of quantitation (<172 ng equivalents [^14C]PER977/g))"}, {"measurement": "Concentration of Radioactivity in Gastric mucosa", "setting": "[1]; 24 Hours", "result": "1438 ng Equivalents [^14C]DAP/g"}, {"measurement": "Concentration of Radioactivity in Kidney", "setting": "[1]; 24 Hours", "result": "39548 ng Equivalents [^14C]DAP/g"}, {"measurement": "Concentration of Radioactivity in Kidney (cortex)", "setting": "[1]; 24 Hours", "result": "40820 ng Equivalents [^14C]DAP/g"}, {"measurement": "Concentration of Radioactivity in Kidney (medulla)", "setting": "[1]; 24 Hours", "result": "2011 ng Equivalents [^14C]DAP/g"}, {"measurement": "Concentration of Radioactivity in Large intestinal contents", "setting": "[1]; 24 Hours", "result": "1801 ng Equivalents [^14C]DAP/g"}, {"measurement": "Concentration of Radioactivity in Small intestine", "setting": "[1]; 24 Hours", "result": "5090 ng Equivalents [^14C]DAP/g"}, {"measurement": "Concentration of Radioactivity in Spinal cord", "setting": "[1]; 24 Hours", "result": "BLQ (Below limit of quantitation (<172 ng equivalents [^14C]PER977/g))"}, {"measurement": "Concentration of Radioactivity in Stomach contents", "setting": "[1]; 24 Hours", "result": "BLQ (Below limit of quantitation (<172 ng equivalents [^14C]PER977/g))"}, {"measurement": "Concentration of Radioactivity in Thymus", "setting": "[1]; 24 Hours", "result": "11451 ng Equivalents [^14C]DAP/g"}, {"measurement": "Concentration of Radioactivity in Urinary bladder", "setting": "[1]; 24 Hours", "result": "606 ng Equivalents [^14C]DAP/g"}, {"measurement": "Concentration of Radioactivity in Urine", "setting": "[1]; 24 Hours", "result": "4553 ng Equivalents [^14C]DAP/g"}, {"measurement": "Concentration of Radioactivity in Blood", "setting": "[1]; 72 Hours", "result": "BLQ (Below limit of quantitation (<172 ng equivalents [^14C]PER977/g))"}, {"measurement": "Concentration of Radioactivity in Bone", "setting": "[1]; 72 Hours", "result": "BLQ (Below limit of quantitation (<172 ng equivalents [^14C]PER977/g))"}, {"measurement": "Concentration of Radioactivity in Bone marrow", "setting": "[1]; 72 Hours", "result": "841 ng Equivalents [^14C]DAP/g"}, {"measurement": "Concentration of Radioactivity in Cerebellum", "setting": "[1]; 72 Hours", "result": "BLQ (Below limit of quantitation (<172 ng equivalents [^14C]PER977/g))"}, {"measurement": "Concentration of Radioactivity in Epididymis", "setting": "[1]; 72 Hours", "result": "BLQ (Below limit of quantitation (<172 ng equivalents [^14C]PER977/g))"}, {"measurement": "Concentration of Radioactivity in Kidney", "setting": "[1]; 72 Hours", "result": "18515 ng Equivalents [^14C]DAP/g"}, {"measurement": "Concentration of Radioactivity in Kidney (cortex)", "setting": "[1]; 72 Hours", "result": "15748 ng Equivalents [^14C]DAP/g"}, {"measurement": "Concentration of Radioactivity in Kidney (medulla)", "setting": "[1]; 72 Hours", "result": "556 ng Equivalents [^14C]DAP/g"}, {"measurement": "Concentration of Radioactivity in Large intestinal contents", "setting": "[1]; 72 Hours", "result": "824 ng Equivalents [^14C]DAP/g"}, {"measurement": "Concentration of Radioactivity in Medulla", "setting": "[1]; 72 Hours", "result": "BLQ (Below limit of quantitation (<172 ng equivalents [^14C]PER977/g))"}, {"measurement": "Concentration of Radioactivity in Muscle", "setting": "[1]; 72 Hours", "result": "BLQ (Below limit of quantitation (<172 ng equivalents [^14C]PER977/g))"}, {"measurement": "Concentration of Radioactivity in Seminal vesicles", "setting": "[1]; 72 Hours", "result": "BLQ (Below limit of quantitation (<172 ng equivalents [^14C]PER977/g))"}, {"measurement": "Concentration of Radioactivity in Small intestine", "setting": "[1]; 72 Hours", "result": "1597 ng Equivalents [^14C]DAP/g"}, {"measurement": "Concentration of Radioactivity in Spinal cord", "setting": "[1]; 72 Hours", "result": "BLQ (Below limit of quantitation (<172 ng equivalents [^14C]PER977/g))"}, {"measurement": "Concentration of Radioactivity in Stomach contents", "setting": "[1]; 72 Hours", "result": "BLQ (Below limit of quantitation (<172 ng equivalents [^14C]PER977/g))"}, {"measurement": "Concentration of Radioactivity in Testes", "setting": "[1]; 72 Hours", "result": "BLQ (Below limit of quantitation (<172 ng equivalents [^14C]PER977/g))"}, {"measurement": "Concentration of Radioactivity in Thymus", "setting": "[1]; 72 Hours", "result": "8365 ng Equivalents [^14C]DAP/g"}, {"measurement": "Concentration of Radioactivity in Urinary bladder", "setting": "[1]; 72 Hours", "result": "283 ng Equivalents [^14C]DAP/g"}, {"measurement": "Concentration of Radioactivity in Urine", "setting": "[1]; 72 Hours", "result": "3866 ng Equivalents [^14C]DAP/g"}, {"measurement": "Blood:Serum Ratio", "setting": "[2]; rat Group 4, 1 hrs, rat 401M", "result": 0.44}, {"measurement": "Blood:Serum Ratio", "setting": "[2]; rat Group 4, 8 hrs, rat 402M", "result": 1.32}, {"measurement": "Blood:Serum Ratio", "setting": "[2]; rat Group 4, 12 hrs, rat 403M", "result": 1.84}, {"measurement": "Blood:Serum Ratio", "setting": "[2]; rat Group 4, 24 hrs, rat 404M", "result": 2.27}, {"measurement": "Blood:Serum Ratio", "setting": "[2]; rat Group 4, 72 hrs, rat 405M", "result": 2.53}, {"measurement": "MTD", "setting": "[3]", "result": 35, "unit": "mg/kg"}]}
